Assay results: US20230374141A1, “COMBINATION THERAPY FOR ALPORT RENAL DISEASE” (Father Flanagan's Boys' Home Doing Business as Boys Town …, priority 2020, published 2023)
No end group written: not given here.

How the values were obtained:
DKO mice [1] = assay: Dual immunofluorescence of glomeruli for mesangial proteins in the GBM of DKO mice; type: in vivo
Excerpt: FIGS. 3A-3F are color dual immunofluorescence confocal images of glomeruli stained with antibodies against laminin α5 (a GBM marker) and laminin α2. FIGS. 3A-3C are untreated DKO mice. FIGS. 3D-3F are DKO mice treated with Ramipril. FIGS. 3A and 3D show laminin α5 data. FIGS. 3B and 3E show laminin α2 data. FIGS. 3C and 3F show a merge of the laminin α5 and laminin α2 data.
FIGS. 4A-4F are color dual immunofluorescence confocal images of glomeruli stained with antibodies against nidogen (a GBM marker) and collagen III. FIGS. 4A-4C are untreated DKO mice. FIGS. 4D-4F are DKO mice treated with Ramipril. FIGS. 4A and 4D show nidogen data. FIGS. 4B and 4E show collagen 3 α1 data. FIGS. […] show a merge of the nidogen and collagen 3 α1 data.
This evidence has obvious and important translational value. By preventing the invasion of the glomerular capillaries by mesangial filopodia, the deposition of mesangial proteins in the GBM is prevented. This prevents podocyte injury that is caused by the mesangial matrix.
If the ECM deposition in the GBM is indeed a significant contributor to glomerular pathology we would expect it would be delayed in the ramipril-treated DKO mice. To determine if this was indeed the case, we performed immunohistochemical analysis for laminin 211 dual stained with the GBM marker laminin α5. Specifically, Duan immunofluorescence analysis was performed on cryosections from 20 and 25 week old DKO/ramipril mice. Sections were immunostained using antibodies for laminin 211 and laminin α5 (a GBM marker). […] Between 20 and 25 weeks of age, however, GBM localization of laminin 211 became widespread as depicted in FIGS. 6A-6F. FIGS. 6A-6C are the 20-week data and FIGS. 6D-6F are the 25-week data.

Autosomal Alport mice = assay: Lifespan of ramipril-treated autosomal Alport mice; type: in vivo; conditions: ramipril 10 mg/kg/day in drinking water from 3 weeks of age, 129 Sv, humane endpoint >10% loss of peak body weight
Experimental: (§1) Autosomal Alport mice or al integrin null Alport (DKO) mice (both on the 129 Sv background) were given straight water or treated with ramipril (10 mg/kg/day in drinking water) starting at 3 weeks of age. Proteinuria (FIG. 1) and lifespan (FIG. 2) were measured. We were surprised to see the improvement of lifespan from 20 weeks in ramipril-treated Alport mice to >30 weeks in ramipril-treated DKO mice. Tripling the lifespan of the Alport mouse model (which lives to on average 10 weeks of age as is evident in FIG. 2) is unprecedented in the Alport field. Integrin α1-null Alport (DKO) mice treated with ramipril live twice as long as untreated DKO mice and 3 times as long as untreated Alport mice. Animals from the indicated treatment groups were allowed to live until they lost >10% of their peak body weight and then euthanized (a humane endpoint, considered age of death). DKO mice show a 60% increase in lifespan. […] If translated to humans (as did ramipril treatment starting at a young age) this therapy could portend survival to 60-70 years of age for Alport patients with severe mutations.

α1 null Alport mice = assay: Proteinuria (Bradford assay, normalized to urinary creatinine) in α1 null Alport mice; type: in vivo; conditions: ramipril-treated vs untreated α1-null Alport mice; total protein normalized to urinary creatinine
Experimental: FIG. 1. […] Urine was collected from the indicated treatment groups at the indicated ages. Total protein was measured by Bradford assay and normalized to urinary creatinine.
as §1

[2] = tested on: al integrin null Alport (DKO) mice; assay: Lifespan of ramipril-treated α1 integrin null Alport (DKO) mice; type: in vivo
Experimental: as §1

DKO mice [3] = assay: Glomerular filtration rate, MediBeacon transdermal LED approach, DKO mice; type: in vivo; conditions: ramipril-treated DKO mice, 25 weeks relative to 20 weeks of age; two mice
Experimental: Glomerular filtration rates (GFR) were measured using the MediBeacon (St Louis, MO) transdermal LED approach, which allows serial measurements to be conducted in the same animals. […] Serial GFR measures were made using two ramipril-treated DKO mice. GFR measures were at 20 and 25 weeks of age. Additional mice at additional timepoints of measure (to 30 weeks) will be added as part of the research plan to establish statistical significance.

mesangial cells = assay: Filopodia formation in cultured mesangial cells; type: cell-based
Excerpt: Thus, it appears that the al-null mesangial cells are refractive to activation of CDC42, which is consistent with the markedly attenuated effect on mesangial filopodial invasion, explaining why al integrin blockade attenuates ECM-mediated podocyte injury.

[4] = ramipril-treated DKO mice at 10 weeks of age, untreated DKO had a significant amount

Molecule: CCOC(=O)[C@H](CCc1ccccc1)N[C@@H](C)C(=O)N1[C@H](C(=O)O)C[C@@H]2CCC[C@@H]21 [ramipril]
- collagen III in the GBM (DKO mice [1]; [4]): no laminin 211 or collagen III in the GBM
- laminin 211 in the GBM (DKO mice [1]; [4]): no laminin 211 or collagen III in the GBM
- GBM accumulation of laminin 211 (DKO mice [1]; ramipril-treated DKO mice, before 20 weeks of age): did not observe any significant GBM accumulation
- GBM localization of laminin 211 (DKO mice [1]; ramipril-treated DKO mice, between 20 and 25 weeks of age): widespread
- lifespan (age of death) (Autosomal Alport mice): 20 weeks
- proteinuria (α1 null Alport mice): markedly reduced
- lifespan (age of death) ([2]; ramipril 10 mg/kg/day in drinking water from 3 weeks of age, α1 integrin null Alport (DKO) mice, 129 Sv): > 30 weeks
- lifespan relative to untreated Alport mice ([2]; ramipril-treated DKO mice): 3 times
- lifespan relative to untreated DKO mice ([2]; ramipril-treated DKO mice): twice as long
- GFR (DKO mice [3]): marked reduction

Molecule: endothelin-1: stimulus of filopodial formation in mesangial cells (CSCSSLMDKECVYFCHLDIIW; ends and bridges not checked; cysteine pairing not given here; UniProt P05305 53-73, looked up)
- formation of filopodia (mesangial cells; wild type mesangial cells): activates the formation of filopodia
- formation of filopodia (mesangial cells; α1-null mesangial cells): do not respond
